In patent US12630600B2 (MEDIMMUNE LIMITED, priority 2022, dated 2026):
Like-named read-outs stand apart in the source and are kept apart here. One block for each compound: values may come before it. Starred links: 1 amine or outer side, 2 acyl side, 3 side chain; linkers in the order of their positions; H or OH if unused. Non-standard residues stand in square brackets, D forms with d. Residues, ends and D or L forms follow the SMILES beside them. Groups on a side chain read outwards from the residue. *: point of attachment. C20 diacid = O=C(O)CCCCCCCCCCCCCCCCCCC(=O)*; C18 diacid = O=C(O)CCCCCCCCCCCCCCCCC(=O)*; Dip = N[C@H](C(=O)O)C(c1ccccc1)c1ccccc1; γGlu = O=C(O)[C@H](CCC(=O)[*:2])N[*:1]; X3 = O=C(CN(Cc1c[nH]cn1)[*:1])[*:2]; Stearoyl = CCCCCCCCCCCCCCCCCC(=O)*; Palmitoyl = CCCCCCCCCCCCCCCC(=O)*; αMeF = C[C@](N)(Cc1ccccc1)C(=O)O; PEG2 = NCCOCCOCCC(=O)O; AEEA = NCCOCCOCC(=O)O; Aib = CC(C)(N)C(=O)O

Experiments:
[1] = molecular target: T1, human glucagon receptor (hGCGR) (Homo sapiens, UniProt P47871); test: cAMP production (HTRF) in CHO cells expressing human glucagon receptor; assay type: cell-based
T1 construct: expressed in transfected cells; host or cells: CHO
Description: Cells were re-suspended in assay buffer at a batch-dependent optimized concentration (typically hGLP-1R cells at 1×10^5 cells/mL, hGCGR cells at 2×10^5 cells/mL).
Cells were added to the assay plate using a multidrop dispenser and incubated at room temperature for 30 minutes before measuring the cAMP level using a cAMP dynamic 2 homogeneous time resolved Fluorescence (HTRF) kit (Cisbio Bioassays #62AM4PEJ) following the two-step protocol as per manufacturer's recommendations. In brief, anti-cAMP cryptate (donor fluorophore) and cAMP-d2 (acceptor fluorophore) were made up separately by diluting each 1 in 20 in conjugate and lysis buffer provided in the kit. Anti-cAMP cryptate was added to all wells of the assay plate, followed by cAMP-d2 added to all wells except non-specific binding (NSB) wells (to which conjugate and lysis buffer was added).
Data was transformed to % Delta F as described in the manufacturer's guidelines and analyzed by 4-parameter logistic fit to determine EC50 values.

[2] = molecular target: T2, human GLP-1 receptor (hGLP-1R) (Homo sapiens, UniProt P43220); test: cAMP production (HTRF) in CHO cells expressing human GLP-1 receptor; assay type: cell-based; settings: for EC50: cAMP, geometric mean; for % Relative Potency Ratio: % GLP-1R activity relative to GLP-1 / % GlucR activity relative to glucagon
T2 construct: expressed in transfected cells; host or cells: CHO

[3] = Table 6, modification at position 17, CHO cells expressing hGCGR, geometric mean, read-out: hGluc-R EC50
[4] = Table 6, modification at position 17, CHO cells expressing hGLP-1R, read-out: hGLP-1R EC50
[5] = Table 8, peptides modified at position 24, geometric mean, CHO cells, read-out: hGluc-R EC50
[6] = Table 8, peptides modified at position 24, CHO cells, read-out: hGLP-1R EC50
[7] = Table 10, peptides modified at position 13, geometric mean, CHO cells, read-out: hGluc-R EC50

T1 sequence (P47871 26-477): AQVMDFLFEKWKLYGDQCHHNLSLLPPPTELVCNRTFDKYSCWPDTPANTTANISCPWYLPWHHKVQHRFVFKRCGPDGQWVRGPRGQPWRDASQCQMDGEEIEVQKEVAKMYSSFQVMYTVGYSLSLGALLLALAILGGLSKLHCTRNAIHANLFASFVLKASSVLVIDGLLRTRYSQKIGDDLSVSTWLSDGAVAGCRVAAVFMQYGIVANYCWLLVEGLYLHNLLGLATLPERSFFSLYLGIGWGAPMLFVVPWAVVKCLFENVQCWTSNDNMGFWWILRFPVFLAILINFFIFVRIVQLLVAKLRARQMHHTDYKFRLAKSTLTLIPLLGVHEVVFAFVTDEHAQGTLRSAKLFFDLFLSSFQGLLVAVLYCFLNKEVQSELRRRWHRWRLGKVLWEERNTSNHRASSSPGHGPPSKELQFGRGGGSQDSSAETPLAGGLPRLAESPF
T2 sequence (P43220 24-463): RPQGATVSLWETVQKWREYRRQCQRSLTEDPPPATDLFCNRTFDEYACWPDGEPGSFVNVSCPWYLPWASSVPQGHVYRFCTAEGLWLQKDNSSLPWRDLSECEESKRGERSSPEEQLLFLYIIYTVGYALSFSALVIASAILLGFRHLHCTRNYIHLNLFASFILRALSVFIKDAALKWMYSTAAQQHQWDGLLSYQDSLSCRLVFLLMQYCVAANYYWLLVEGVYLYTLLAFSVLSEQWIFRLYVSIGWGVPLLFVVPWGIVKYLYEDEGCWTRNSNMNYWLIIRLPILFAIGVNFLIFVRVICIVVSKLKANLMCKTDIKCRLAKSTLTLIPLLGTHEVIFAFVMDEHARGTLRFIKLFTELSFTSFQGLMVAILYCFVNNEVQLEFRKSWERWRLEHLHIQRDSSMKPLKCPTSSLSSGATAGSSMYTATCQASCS

SMILES: CC[C@H](C)[C@H](NC(=O)[C@H](Cc1c[nH]c2ccccc12)NC(=O)[C@H](CCCCNC(=O)COCCOCCNC(=O)COCCOCCNC(=O)CC[C@H](NC(=O)CC[C@H](NC(=O)CCCCCCCCCCCCCCCCCCC(=O)O)C(=O)O)C(=O)O)NC(=O)[C@@H](NC(=O)[C@H](Cc1ccccc1)NC(=O)[C@H](CC(=O)O)NC(=O)[C@H](CCC(N)=O)NC(=O)[C@H](C)NC(=O)[C@H](C)NC(=O)[C@H](CCCNC(=N)N)NC(=O)[C@H](CO)NC(=O)[C@H](CC(=O)O)NC(=O)[C@H](CC(C)C)NC(=O)[C@](C)(Cc1ccccc1)NC(=O)[C@H](CCCCN)NC(=O)[C@H](CO)NC(=O)[C@@H](NC(=O)[C@H](CC(=O)O)NC(=O)[C@H](CO)NC(=O)[C@@H](NC(=O)[C@](C)(Cc1ccccc1)NC(=O)[C@H](CO)NC(=O)CNC(=O)[C@H](Cc1c[nH]cn1)NC(=O)[C@H](CO)NC(=O)CNCc1c[nH]cn1)[C@@H](C)O)C(C)C)C(C)C)C(=O)N[C@@H](C)C(=O)N[C@@H](CC(N)=O)C(=O)N[C@H](C(N)=O)[C@@H](C)O [Peptide 380] (H-[X3]SHGS[αMeF]TSDVSK[αMeF]LDSRAAQDFVK([AEEA-AEEA-γGlu-γGlu-C20 diacid])WIANT-NH2; N-terminus assumed)
EC50 [1, 5]: 14900 pM
EC50 [2, 6]: 871 pM

SMILES: CC[C@H](C)[C@H](NC(=O)[C@H](Cc1c[nH]c2ccccc12)NC(=O)[C@H](CCCCNC(=O)CC[C@H](NC(=O)CC[C@H](NC(=O)CCOCCOCCNC(=O)CC[C@H](NC(=O)CC[C@H](NC(=O)CCCCCCCCCCCCCCCCCCC(=O)O)C(=O)O)C(=O)O)C(=O)O)C(=O)O)NC(=O)[C@@H](NC(=O)[C@H](Cc1ccccc1)NC(=O)[C@H](CC(=O)O)NC(=O)[C@H](CCC(N)=O)NC(=O)[C@H](C)NC(=O)[C@H](C)NC(=O)[C@H](CCC(N)=O)NC(=O)[C@H](CO)NC(=O)[C@H](CC(=O)O)NC(=O)[C@H](CC(C)C)NC(=O)[C@](C)(Cc1ccccc1)NC(=O)[C@H](CCCCN)NC(=O)[C@H](CO)NC(=O)[C@@H](NC(=O)[C@H](CC(=O)O)NC(=O)[C@H](CO)NC(=O)[C@@H](NC(=O)[C@](C)(Cc1ccccc1)NC(=O)[C@H](CO)NC(=O)CNC(=O)[C@H](Cc1c[nH]cn1)NC(=O)C(C)(C)NC(=O)[C@@H](N)Cc1c[nH]cn1)[C@@H](C)O)C(C)C)C(C)C)C(=O)N[C@@H](C)C(=O)N[C@@H](CC(N)=O)C(=O)N[C@H](C(N)=O)[C@@H](C)O [Peptide 357]
EC50 ([1]; hGluc-R EC50 (pM), Table 8, peptides modified at position 24, geometric mean, CHO cells): 550 pM
% Relative Potency Ratio ([2]; Table 8): 1.2
EC50 ([2]; hGLP-1R EC50 (pM), Table 8, peptides modified at position 24, CHO cells): 917 pM

SMILES: CCCCCCCCCCCCCCCCCC(=O)N[C@@H](CCC(=O)N[C@@H](CCC(=O)NCCOCCOCCC(=O)NCCOCCOCCC(=O)NCCCC[C@H](NC(=O)[C@H](CO)NC(=O)[C@H](CC(=O)O)NC(=O)[C@H](CC(C)C)NC(=O)[C@@H](NC(=O)[C@H](CCCCN)NC(=O)[C@H](CO)NC(=O)[C@@H](NC(=O)[C@H](CC(=O)O)NC(=O)[C@H](CO)NC(=O)[C@@H](NC(=O)[C@](C)(Cc1ccccc1)NC(=O)[C@H](CO)NC(=O)CNC(=O)[C@H](CCC(N)=O)NC(=O)C(C)(C)NC(=O)[C@@H](N)Cc1c[nH]cn1)[C@@H](C)O)C(C)C)C(c1ccccc1)c1ccccc1)C(=O)N[C@@H](C)C(=O)N[C@@H](C)C(=O)N[C@@H](CCC(N)=O)C(=O)N[C@@H](CC(=O)O)C(=O)N[C@@](C)(Cc1ccccc1)C(=O)N[C@H](C(=O)N[C@@H](CCC(=O)O)C(=O)NC(C)(C)C(=O)N[C@@H](CC(C)C)C(=O)N[C@@H](CCC(=O)O)C(=O)N[C@@H](C)C(=O)NCC(=O)NCC(N)=O)C(C)C)C(=O)O)C(=O)O [Peptide 44] (H-H[Aib]QGS[αMeF]TSDVSK[Dip]LDSK([PEG2-PEG2-γGlu-γGlu-Stearoyl])AAQD[αMeF]VE[Aib]LEAGG-NH2; N-terminus assumed)
EC50 [1, 3]: 18.2 pM
EC50 [2, 4]: 2.12 pM
% Relative Potency Ratio ([2]; Table 6): 17.0

SMILES: CC[C@H](C)[C@H](NC(=O)C(C)(C)NC(=O)[C@H](CCCCNC(=O)COCCOCCNC(=O)COCCOCCNC(=O)CC[C@H](NC(=O)CC[C@H](NC(=O)CCCCCCCCCCCCCCCCC(=O)O)C(=O)O)C(=O)O)NC(=O)[C@@H](NC(=O)[C@](C)(Cc1ccccc1)NC(=O)[C@H](CC(=O)O)NC(=O)[C@H](CCC(N)=O)NC(=O)[C@H](C)NC(=O)[C@H](C)NC(=O)[C@H](CCCNC(=N)N)NC(=O)[C@H](CO)NC(=O)[C@H](CC(=O)O)NC(=O)[C@H](CC(C)C)NC(=O)[C@](C)(Cc1ccccc1)NC(=O)[C@H](CCCCN)NC(=O)[C@H](CO)NC(=O)[C@@H](NC(=O)[C@H](CC(=O)O)NC(=O)[C@H](CO)NC(=O)[C@@H](NC(=O)[C@](C)(Cc1ccccc1)NC(=O)[C@H](CO)NC(=O)CNC(=O)[C@H](Cc1c[nH]cn1)NC(=O)C(C)(C)NC(=O)[C@@H](N)Cc1c[nH]cn1)[C@@H](C)O)C(C)C)C(C)C)C(=O)N[C@@H](C)C(=O)N[C@@H](CC(N)=O)C(=O)N[C@H](C(N)=O)[C@@H](C)O [Peptide 372] (H-H[Aib]HGS[αMeF]TSDVSK[αMeF]LDSRAAQD[αMeF]VK([AEEA-AEEA-γGlu-γGlu-C18 diacid])[Aib]IANT-NH2; N-terminus assumed)
EC50 [1, 5]: 35.1 pM
EC50 [2, 6]: 71.8 pM
% Relative Potency Ratio ([2]; Table 8): 1.0

The remaining lines, values ahead:

EC50 [1, 3]: 462 pM
EC50 [2, 4]: 209 pM
SMILES: CC(C)C[C@H](NC(=O)[C@H](Cc1c[nH]c2ccccc12)NC(=O)[C@H](CCCNC(=N)N)NC(=O)[C@@H](NC(=O)[C@H](Cc1ccccc1)NC(=O)[C@H](CC(=O)O)NC(=O)[C@H](CCC(N)=O)NC(=O)[C@H](C)NC(=O)[C@H](CCCNC(=N)N)NC(=O)[C@H](CCCCNC(=O)COCCOCCNC(=O)COCCOCCNC(=O)CC[C@H](NC(=O)CCCCCCCCCCCCCCCCCCC(=O)O)C(=O)O)NC(=O)[C@@H](NC(=O)[C@H](CC(=O)O)NC(=O)[C@H](CC(C)C)NC(=O)[C@](C)(Cc1ccccc1)NC(=O)[C@H](CCCCN)NC(=O)[C@H](CO)NC(=O)[C@@H](NC(=O)[C@H](CC(=O)O)NC(=O)[C@H](CO)NC(=O)[C@@H](NC(=O)[C@H](Cc1ccccc1)NC(=O)[C@@H](NC(=O)CNC(=O)[C@H](CCC(N)=O)NC(=O)C(C)(C)NC(=O)[C@@H](N)Cc1c[nH]cn1)[C@@H](C)O)[C@@H](C)O)C(C)C)[C@@H](C)O)C(C)C)C(=O)N[C@@H](CCC(=O)O)C(=O)N[C@@H](C)C(=O)NC(C)(C)C(=O)NCC(=O)O [Peptide 407]

EC50 [1, 7]: 9.54 pM
% Relative Potency Ratio ([2]; Table 10): 32.3
SMILES: CCCCCCCCCCCCCCCC(=O)N[C@@H](CCC(=O)NCCOCCOCCC(=O)NCCOCCOCCC(=O)NCCCC[C@H](NC(=O)[C@H](CCCCN)NC(=O)[C@H](CO)NC(=O)[C@@H](NC(=O)[C@H](CC(=O)O)NC(=O)[C@H](CO)NC(=O)[C@@H](NC(=O)[C@](C)(Cc1ccccc1)NC(=O)[C@H](CO)NC(=O)CNC(=O)[C@H](CCC(N)=O)NC(=O)C(C)(C)NC(=O)[C@@H](N)Cc1c[nH]cn1)[C@@H](C)O)C(C)C)C(=O)N[C@@H](CC(C)C)C(=O)N[C@@H](CC(=O)O)C(=O)N[C@@H](CO)C(=O)N[C@@H](CCCNC(=N)N)C(=O)N[C@@H](C)C(=O)N[C@@H](C)C(=O)N[C@@H](CCC(N)=O)C(=O)N[C@@H](CC(=O)O)C(=O)N[C@@](C)(Cc1ccccc1)C(=O)N[C@H](C(=O)N[C@@H](CCC(=O)O)C(=O)N[C@@H](Cc1c[nH]c2ccccc12)C(=O)N[C@H](C(=O)N[C@@H](C)C(=O)N[C@@H](CC(N)=O)C(=O)N[C@H](C(N)=O)[C@@H](C)O)[C@@H](C)CC)C(C)C)C(=O)O [Peptide 401] (H-H[Aib]QGS[αMeF]TSDVSKK([PEG2-PEG2-γGlu-Palmitoyl])LDSRAAQD[αMeF]VEWIANT-NH2)

EC50 [1, 7]: 8590 pM
EC50 ([2]; Table 10, peptides modified at position 13, CHO cells, read-out: hGLP-1R EC50): 1040 pM
% Relative Potency Ratio ([2]; Table 10): 16.3
SMILES: CC[C@H](C)[C@H](NC(=O)C(C)(C)NC(=O)[C@H](CCC(N)=O)NC(=O)[C@@H](NC(=O)[C@](C)(Cc1ccccc1)NC(=O)[C@H](CC(=O)O)NC(=O)[C@H](CCC(N)=O)NC(=O)[C@H](C)NC(=O)[C@H](C)NC(=O)[C@H](CCCNC(=N)N)NC(=O)[C@H](CO)NC(=O)[C@H](CC(=O)O)NC(=O)[C@H](CC(C)C)NC(=O)[C@H](CCCCNC(=O)COCCOCCNC(=O)COCCOCCNC(=O)CC[C@H](NC(=O)CC[C@H](NC(=O)CCCCCCCCCCCCCCCCCCC(=O)O)C(=O)O)C(=O)O)NC(=O)[C@H](CCCCN)NC(=O)[C@H](CO)NC(=O)[C@@H](NC(=O)[C@H](CC(=O)O)NC(=O)[C@H](CO)NC(=O)[C@@H](NC(=O)[C@](C)(Cc1ccccc1)NC(=O)[C@H](CO)NC(=O)CNC(=O)[C@H](Cc1c[nH]cn1)NC(=O)C(C)(C)NC(=O)[C@@H](N)Cc1c[nH]cn1)[C@@H](C)O)C(C)C)C(C)C)C(=O)N[C@@H](C)C(=O)N[C@@H](CC(N)=O)C(=O)N[C@H](C(N)=O)[C@@H](C)O [Peptide 405] (H-H[Aib]HGS[αMeF]TSDVSKK([AEEA-AEEA-γGlu-γGlu-C20 diacid])LDSRAAQD[αMeF]VQ[Aib]IANT-NH2)
